Source: ChEMBL document CHEMBL5357001, “Coriaceumins A-D, the First Nitrogen-Containing Crenulide Diterpenoids from the Brown Alga Dictyota coriacea Collected in the East China Sea” (J Nat Prod, 2024)
Calls of active or inactive are those of the source. The rule behind the calls is not given here.

Legend:
[1] = tested on: A549; assay: Cytotoxicity against human A549 cells assessed as reduction in cell viability at 20 uM incubated for 3 days by CCK-8 assay; format: functional, cell-based; settings: time 3.0 day
[2] = target: T1, Tyrosine-protein phosphatase non-receptor type 1 (Homo sapiens) (UniProt P18031); assay: Inhibition of recombinant PTP1B (unknown origin) using pNPP as substrate at 20 uM relative to control
T1 sequence (whole entry): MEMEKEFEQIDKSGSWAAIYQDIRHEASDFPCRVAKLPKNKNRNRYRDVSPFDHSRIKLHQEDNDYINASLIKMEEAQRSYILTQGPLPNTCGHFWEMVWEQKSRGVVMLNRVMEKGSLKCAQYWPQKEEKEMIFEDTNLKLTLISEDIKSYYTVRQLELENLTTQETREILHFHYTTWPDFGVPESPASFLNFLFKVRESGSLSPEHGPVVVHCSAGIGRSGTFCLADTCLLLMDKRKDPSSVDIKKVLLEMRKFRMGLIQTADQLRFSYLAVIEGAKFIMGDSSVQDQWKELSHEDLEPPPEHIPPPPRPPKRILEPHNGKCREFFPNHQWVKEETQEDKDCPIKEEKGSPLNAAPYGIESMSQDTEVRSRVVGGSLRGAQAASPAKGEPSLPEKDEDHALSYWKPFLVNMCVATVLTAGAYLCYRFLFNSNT

[3] = tested on: HL-60; assay: Cytotoxicity against human HL-60 cells assessed as reduction in cell viability at 20 uM incubated for 3 days by CCK-8 assay; format: functional, cell-based; settings: time 3.0 day
[4] = target: T2, Tyrosine-protein phosphatase non-receptor type 1 (Homo sapiens, UniProt P18031); assay: Inhibition of recombinant PTP1B (unknown origin) using pNPP as substrate relative to control
T2 sequence (P18031 whole entry): T1 sequence (whole entry)

inhibition [2] [%]	IC50 [4] [µM]	SMILES	Activity [1]	Activity [3]
40		CC(C)=CCC[C@@H](C)[C@H]1C2=C(C(=O)NC2)[C@H]2C[C@H]2[C@H](C)C[C@H]1O	inactive	inactive
81	9.5	CCO[C@@H]1C/C=C(\C)CC[C@@H]([C@H](C)CCC=C(C)C)C2=C1C(=O)N[C@H]2O	inactive	inactive
52	19	CC(=O)O[C@@H]1C[C@@H](C)[C@@H]2C[C@@H]2C2=C(C(=O)NC2)[C@@H]1[C@H](C)CCC=C(C)C	inactive	inactive
86	7.3	CC(C)=CCC[C@@H](C)[C@H]1C2=C(C(=O)OC2)[C@H]2C[C@H]2[C@H](C)C[C@H]1O	inactive	inactive
38		CCO[C@@H]1C/C=C(\C)CC[C@@H]([C@H](C)CCC=C(C)C)C2=C1C(=O)N[C@@H]2O	inactive	inactive
47		C=C(C)C(=O)CC[C@@H](C)[C@H]1C2=C(CNC2=O)[C@H]2C[C@H]2[C@H](C)C[C@H]1OC(C)=O	inactive	inactive
73	13	CC(=O)O[C@@H]1C[C@@H](C)[C@@H]2C[C@@H]2C2=C(CNC2=O)[C@@H]1[C@H](C)CCC=C(C)C	inactive	inactive
